Target: T1, mu opioid receptor (Canis lupus familiaris, UniProt A0A0F6TMT6)
T1 construct: Laboratory bred beagles were used as a source of dog brain tissue; from tissue; host or cells: beagle dog brain without cerebellum, washed membrane pellet
Assay: mu opioid receptor binding assay in dog brain membranes (3H-DAMGO displacement)
Settings: dog brain tissue, read-out: Ki values for the μ receptor
Experimental: The assays were conducted by the following procedure.
Laboratory bred beagles were used as a source of dog brain tissue. Animals were euthanised, their brains removed and the cerebellum discarded. The remaining brain tissue was sectioned into small pieces approximately 3 g in weight and homogenised in 50 mM Tris pH 7.4 buffer at 4° C. using a Kinematica Polytron™ tissue homogeniser. The resulting homogenate was centrifuged at 48,400× g for 10 minutes and the supernatant discarded. The pellet was resuspended in Tris buffer and incubated at 37° C. for 10 minutes. Centrifugation, resuspension and incubation steps were repeated twice more, and the final pellet was resuspended in Tris buffer and stored at −80° C. Membrane material prepared in this manner could be stored for up to four weeks prior to use.
For mu assays, increasing concentrations of experimental compound, (5×10^−12 to 10^−5 M), Tris buffer and ^3H ligand, ([D-Ala^2,N-Me-Phe^4,Gly-ol^5]-Enkephalin, DAMGO), were combined in polystyrene tubes. The reaction was initiated by the addition of tissue, and the mixture was incubated at room temperature for 90 minutes. The reaction was terminated by rapid filtration using a Brandel Cell Harvester™ through Betaplate™ GF/A glass fibre filters pre-soaked in 50 mM Tris pH 7.4, 0.1% polyethylenimine buffer. The filters were then washed three times with 0.5 mL ice-cold Tris pH 7.4 buffer. Washed filters were placed in bags and Starscint™ scintillant added. Bags containing the filters and scintillant were heat sealed and counted by a Betaplate™ 1204 beta counter.
Duplicate samples were run for each experimental compound and the data generated was analysed using IC50 analysis software in Graphpad Prism. Ki values were calculated using Graphpad Prism according to the following formula: […]
where IC50 is the concentration at which 50% of the ^3H ligand is displaced by the test compound and KD is the dissociation constant for the ^3H ligand at the receptor site.

T1 sequence (A0A0F6TMT6 1-401): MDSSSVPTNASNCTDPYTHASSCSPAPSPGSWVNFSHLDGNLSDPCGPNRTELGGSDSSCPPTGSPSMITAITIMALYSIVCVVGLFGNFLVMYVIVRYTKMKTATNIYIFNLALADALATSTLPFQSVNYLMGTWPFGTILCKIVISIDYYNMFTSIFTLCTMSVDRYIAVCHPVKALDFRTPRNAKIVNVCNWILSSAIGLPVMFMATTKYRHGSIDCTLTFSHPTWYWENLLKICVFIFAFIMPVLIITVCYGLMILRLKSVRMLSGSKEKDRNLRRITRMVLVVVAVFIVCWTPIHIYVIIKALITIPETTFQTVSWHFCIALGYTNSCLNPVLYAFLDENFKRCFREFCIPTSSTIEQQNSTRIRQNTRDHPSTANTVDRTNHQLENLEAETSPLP

Row | Structure (SMILES) | Ki [µM]
1 | CCCCCCN1CCC(C)(c2cccc(C(=O)NC(C)C)c2)C(C)C1 (stereo not shown) [Example 4, 1-Hexyl-3,4-dimethyl-4-(3-(N-isopropyl)amidophenyl)-piperidine] | ≤ 4
2 | CCCCCCN1CCC(C)(c2cccc(C(=O)NCC)c2)C(C)C1 (stereo not shown) [Example 8, 1-Hexyl-3,4-dimethyl-4-(3-(N-ethyl)amidophenyl)-piperidine] | ≤ 4
3 | CCNC(=O)c1cccc(C2(C)CCN(CCCCC(C)C)CC2C)c1 (stereo not shown) [Example 18, 1-(5-Methylhexyl)-3,4-dimethyl-4-(3-(N-ethyl)-amidophenyl)piperidine] | ≤ 4
4 | CCNC(=O)c1cccc(C2(C)CCN(CCCCCC#N)CC2C)c1 (stereo not shown) [Example 20, 1-(5-Cyanopentyl)-3,4-dimethyl-4-(3-(N-ethyl)-amidophenyl)piperidine] | ≤ 4

— patent US6812236B2, “Compounds useful in therapy” (Pfizer Inc., priority 1999, dated 2004)
